Assay results reported in the supplement of paper PMC13380429.

What was measured:
Conditions in all cases: 72 h
[1] = system: Calu-3; assay: cell viability relative to DMSO; higher = less toxic
[2] = system: U2OS; assay: as above
[3] = system: Vero E6; assay: as above
[4] = system: HepG2; assay: as above
[5] = system: Caco-2; assay: as above
[6] = system: Calu-3; assay: drug sensitivity score (DSS) for viability; higher = more toxic; extreme values may be limits of the assay
[7] = system: U2OS; assay: as above
[8] = system: Vero E6; assay: as above
[9] = system: HepG2; assay: as above
[10] = system: Caco-2; assay: as above
[11] = system: Calu-3; assay: relative viability EC50 (midpoint between 100% and the lowest measured viability); higher = less toxic
[12] = system: U2OS; assay: as above
[13] = system: Vero E6; assay: as above
[14] = system: HepG2; assay: as above
[15] = system: Caco-2; assay: as above

SMILES	cell viability ([1]; 1 nM) [%]	cell viability ([1]; 10 nM) [%]	cell viability ([1]; 100 nM) [%]	cell viability ([1]; 1000 nM) [%]	cell viability ([1]; 10000 nM) [%]	cell viability ([2]; 1 nM) [%]	cell viability ([2]; 10 nM) [%]	cell viability ([2]; 100 nM) [%]	cell viability ([2]; 1000 nM) [%]	cell viability ([2]; 10000 nM) [%]	cell viability ([3]; 1 nM) [%]	cell viability ([3]; 10 nM) [%]	cell viability ([3]; 100 nM) [%]	cell viability ([3]; 1000 nM) [%]	cell viability ([3]; 10000 nM) [%]	cell viability ([4]; 1 nM) [%]	cell viability ([4]; 10 nM) [%]	cell viability ([4]; 100 nM) [%]	cell viability ([4]; 1000 nM) [%]	cell viability ([4]; 10000 nM) [%]	cell viability ([5]; 1 nM) [%]	cell viability ([5]; 10 nM) [%]	cell viability ([5]; 100 nM) [%]	cell viability ([5]; 1000 nM) [%]	cell viability ([5]; 10000 nM) [%]	drug sensitivity score [6]	drug sensitivity score [7]	drug sensitivity score [8]	drug sensitivity score [9]	drug sensitivity score [10]	relative viability EC50 [11] [µM]	relative viability EC50 [12] [µM]	relative viability EC50 [13] [µM]	relative viability EC50 [14] [µM]	relative viability EC50 [15] [µM]
O=c1c(-c2ccccc2)c1-c1ccccc1 [diphencyprone]	105	97.6	104	111	122	98.9	99.5	103	98	84.2	101	104	99.6	99.1	93.5	95.2	91.4	95.7	89.8	86	110	103	114	106	97.2	0	0.5	0	0.2	0	> 10	> 10	> 10	> 10	> 10
COCCN(C(=O)c1cc(OC)c(OC)c(OC)c1)c1nc(-c2ccccc2)cs1 [eact]	107	96.2	94.1	92.8	85.1	102	97	100	96.1	106	94.4	104	90.4	96.6	97.5	107	95.6	104	104	92.5	103	84.3	96.2	88.9	90.9	0.4	0	0	0	0.1	> 10	> 10	> 10	> 10	> 10
CCC(=O)O[C@H]1[C@H](O[C@@H]2[C@@H](C)[C@H](O[C@H]3C[C@@](C)(OC)[C@@H](O)[C@H](C)O3)[C@@H](C)C(=O)O[C@H](CC)[C@@](C)(O)[C@H](O)[C@@H](C)C(=O)[C@H](C)C[C@@]2(C)O)O[C@H](C)C[C@@H]1N(C)C [erythromycin-estolate]	91.3	96	91.4	88.6	99	98.7	98.4	101	104	104	96.9	95.9	101	96.4	102	99.7	104	104	93.2	100	96.2	102	97.5	99.4	97	0	0	0	0	0	> 10	> 10	> 10	> 10	> 10
C#C[C@]1(OC(C)=O)CC[C@H]2[C@@H]3CCC4=C[C@@H](OC(C)=O)CC[C@@H]4[C@H]3CC[C@@]21C [ethynodiol-diacetate]	99.4	132	103	99.6	102	99	98.7	99.6	97.6	92.4	98.6	103	104	98.6	108	104	104	97.3	103	107	88.6	96.9	92.4	100	88.8	0	0	0	0	0	> 10	> 10	> 10	> 10	> 10
NCC(CC(=O)O)c1ccccc1 (stereo not given) [fenigam]	95.4	97.6	100	97.4	97.4	93.5	91.1	97.3	95.4	98.3	100	95.8	97.6	101	111	95.1	97.2	92.4	106	110	93.3	105	101	87.8	112	0	0	0	0	0	> 10	> 10	> 10	> 10	> 10
Nc1nc(=O)n([C@@H]2O[C@H](CO)[C@@H](O)[C@@H]2F)cc1I [fiacitabine]	93.1	102	102	109	96	99.8	104	93.6	98.6	100	98.9	97.6	98.9	100	96.7	104	91.4	96.1	106	83.6	93.8	99.5	90.1	84.3	93.2	0	0	0	0.2	0.2	> 10	> 10	> 10	> 10	> 10
O=C1OC2(c3ccc(O)cc3Oc3cc(O)ccc32)c2ccccc21 [fluorescein]	97.5	101	101	93.6	101	99.5	101	95.2	97.7	92.5	102	94.6	106	107	101	97.9	99.1	108	94.7	97.7	108	116	117	120	98.3	0	0	0	0	0	> 10	> 10	> 10	> 10	> 10
NNC(=O)CN1C(=O)CN=C(c2ccccc2)c2cc(Br)ccc21 [gidazepam]	104	99	100	110	98.5	96.5	92.2	96.8	91	97.5	99.3	102	93	94.1	102	106	92.2	109	106	106	95.8	92.7	94.4	90.2	95.7	0	0	0	0	0	> 10	> 10	> 10	> 10	> 10
N=C(N)N/N=C/c1c(Cl)cccc1Cl [guanaben-acetate]	91.7	94.2	91	99.7	92.1	96.9	96.2	94.6	97.7	91.5	95.3	102	100	97.5	97.7	98.1	102	102	93.9	101	94.3	95.8	87.3	95.4	90.7	0	0	0	0	0	> 10	> 10	> 10	> 10	> 10
CC(C)(N)C(=O)N[C@H](COCc1ccccc1)C(=O)N1CCC2(CC1)CN(S(C)(=O)=O)c1ccccc12 [ibutamoren]	111	108	98	105	91	100	100	96.9	102	100	104	103	98.1	95.6	108	102	89.5	95.6	98	95.6	93.6	98.4	99	100	95.8	0	0	0	0	0	> 10	> 10	> 10	> 10	> 10
CCOC(=O)[C@H](CCc1ccccc1)N[C@@H](C)C(=O)N1C(=O)N(C)C[C@H]1C(=O)O [imidapril]	98.5	96.4	99.8	97.5	96.8	101	93.4	97.7	95.7	102	104	98.3	98.1	101	99.9	94.6	103	104	113	104	95.1	87.8	93.9	97.6	97.8	0	0	0	0	0	> 10	> 10	> 10	> 10	> 10
Cc1ccc2c(c1)c1c(n2CCc2ccc(C)nc2)CCN(C)C1 [latrepirdine]	97.5	97.4	101	103	95.4	100	100	97.7	95.8	93.7	98	102	104	96.5	93.6	108	102	118	98.8	99.7	106	99.4	97.9	96	91	0	0	0	0	0	> 10	> 10	> 10	> 10	> 10
C[C@@H]1NC(=O)[C@@H]2CCCN2C(=O)[C@H](CC(N)=O)NC(=O)[C@@H]2CSSC[C@H](N)C(=O)N[C@H]3CSSC[C@H](NC1=O)C(=O)N[C@@H]([C@@H](C)O)C(=O)NCC(=O)N[C@H](C(=O)N[C@@H](Cc1ccc(O)cc1)C(=O)O)CSSC[C@H](NC(=O)[C@H](Cc1ccc(O)cc1)NC(=O)[C@H](CCC(=O)O)NC3=O)C(=O)N2 [linaclotide]	90.3	91.2	83.9	107	97.2	101	101	97.3	100	95.8	100	106	104	91.1	103	93.6	93.8	102	88.9	94.2	98.8	98.9	104	110	95.1	0	0	0	0	0	> 10	> 10	> 10	> 10	> 10
Cc1cccc(C)c1OCC(=O)N[C@@H](Cc1ccccc1)[C@@H](O)C[C@H](Cc1ccccc1)NC(=O)[C@H](C(C)C)N1CCCNC1=O [lopinavir]	103	90.1	97.3	102	104	101	107	100	101	93.3	103	99.1	104	101	110	107	106	108	104	86.5	90.9	102	102	93.9	84.8	0	0	0	0.1	0.7	> 10	> 10	> 10	> 10	> 10
Cc1ccccc1OCC(O)CO (stereo not given) [mephenesin]	111	91.1	103	101	106	101	96.8	104	97.1	100	110	103	99.6	102	98.4	107	113	109	102	99.8	90.8	96.5	94.4	93.1	92.7	0	0	0	0	0	> 10	> 10	> 10	> 10	> 10
O=C1NC(=S)NC(=O)C1C(=O)Nc1ccccc1 [merbarone]	99.3	100	105	106	110	93.9	96.3	97.4	103	104	100	91.6	93.9	92.7	106	104	87.2	100	99.8	102	94.7	93.3	103	94	94.5	0	0	0	0	0	> 10	> 10	> 10	> 10	> 10
CC(=O)Nc1cccc(O)c1 [metacetamol]	98.1	101	99.9	99.8	96.9	103	101	99.7	95.5	101	102	94.1	96	97.9	102	103	91.5	93.7	92.1	83.8	104	101	89.1	93.8	98.8	0	0	0	0.6	0	> 10	> 10	> 10	> 10	> 10
Cc1cc(C(C)(C)CC(C)(C)C)ccc1OCCOCC[N+](C)(C)Cc1ccccc1 [methylbenzethonium-chloride]	103	103	91.4	89.8	80.5	101	94.7	102	98.9	82.2	95.9	98.5	92.2	98.3	106	92	105	98.1	108	81.2	95.2	102	99.3	85	42.5	1.3	0.6	0	0.3	5.4	> 10	> 10	> 10	> 10	1.51
CCCCCCCCCCCCCCCCOP(=O)([O-])OCC[N+](C)(C)C [miltefosine]	98.3	91.5	90.3	108	86.5	96.8	103	97.2	99.9	95.5	96.1	101	110	105	77.3	107	98.5	112	96.4	109	113	104	106	114	99.8	0	0	0.6	0	0	> 10	> 10	> 10	> 10	> 10
COc1nc(C)nc(Cl)c1NC1=NCCN1 [moxonidine]	96.2	93.5	90	101	97.5	98.7	101	97.1	102	99.3	102	100	93.2	94.5	106	103	101	99.3	104	95.5	97.1	95.6	95.8	105	88.7	0	0	0	0	0	> 10	> 10	> 10	> 10	> 10
CC[C@@H](Nc1c(Nc2cccc(C(=O)N(C)C)c2O)c(=O)c1=O)c1ccc(C)o1 [navarixin]	89.2	98.3	95.1	102	105	93.4	102	98.3	98.4	103	94.9	95.3	96.6	90.2	107	97.9	87.4	93.8	94.6	99	95	99.3	106	99.3	91.6	0	0	0	0	0	> 10	> 10	> 10	> 10	> 10
